This is an account of results in PubChem BioAssay (NCI).

SMILES strings stand for the structures. Several values for one entry are separate records, joined by “and”; a condition that tells them apart may be missing. Equal values may be shown once.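 Protocol summary: plate cells (96-well), add compound at 5 concentrations, incubate 48 h, interpolate endpoints linearly. At the GI50, growth is halved. TGI is the concentration that stops growth completely.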

Experiment in all cases: NCI-60 cell line screen, 48 h
Experiment [1] deals with COLO 205 colon.
The subject of experiment [2] is U251 CNS.
Experiment [3] concerns IGROV1 ovarian.
Experiment [4] deals with CAKI-1 renal.
Experiment [5] concerns SF-268 CNS.
Experiment [6] concerns TK-10 renal.
Experiment [7] relates to HOP-62 NSCLC.
Experiment [8] relates to A498 renal.
Experiment [9] concerns UO-31 renal.
Experiment [10] has as its system NCI-H460 lung.
Experiment [11] concerns MDA-MB-435.

Turning to `c1ccc(N=c2snc(-c3ccccc3)s2)cc1`, the TGI in experiment [1], in experiment [2], in experiment [3], in experiment [4], in experiment [5] and in experiment [6] was greater than 100 µM in each case. The TGI in experiment [7], in experiment [8], in [9] and in [10] was greater than 100 µM each time.

`O=C1CC(c2ccc([N+](=O)[O-])cc2)C2(C(=O)NC(=S)NC2=O)C(c2ccc([N+](=O)[O-])cc2)C1` (stereo not given): the TGI in [11] was 40.4 µM; in experiment [1] it was greater than 100 µM; in [2], 37 µM; in [3] it was 45.2 µM; in experiment [5], 45.6 µM; in experiment [6] it was 46.7 µM. Moreover, the TGI in experiment [7] was 56 µM; in experiment [8], 85 µM; in experiment [9], 63.1 µM; in [10] it was 42.2 µM.

For `CC(=O)CC(=O)c1cc2c(=O)oc(C)cc2oc1=O`, the TGI in [1], in [2], in experiment [3], in experiment [4], in experiment [5] and in [6] was greater than 37.5 µM throughout. In addition, the TGI in experiment [7], in [9] and in [10] was greater than 37.5 µM in each case.

With `CSc1c(C(=O)Nc2ccc(C)cc2)c(N)[nH]c(=O)c1C#N`, the TGI in [11], in [1], in [2], in [4], in [5] and in [6] was greater than 100 µM throughout. Further, the TGI in [8], in experiment [9] and in [10] was greater than 100 µM throughout.

Take `Nc1ncnc2c1ncn2C(=O)NC12CC3CC(CC(C3)C1)C2`: the TGI in [11], in experiment [1], in [2], in experiment [4], in experiment [5] and in [6] was greater than 100 µM in each case. In addition, the TGI in experiment [7], in [8], in experiment [9] and in experiment [10] was greater than 100 µM throughout.

For the molecule `O=C1C(Cl)N(c2ccccc2)C1c1c[nH]c2ccccc12` (stereo not given), the TGI in experiment [1], in [2], in [3], in [5], in experiment [6] and in experiment [7] was greater than 100 µM throughout. The TGI in experiment [9] and in experiment [10] was greater than 100 µM throughout.

As to `C[C@@H]1C[C@H](O)[C@]2(O)O[C@@H]3C[C@@]4(C=O)[C@@H](CC=C5[C@@H]4CC[C@]4(C)[C@@H](C6=CC(=O)OC6)CC[C@]54O)C[C@H]3O[C@@H]2O1`, the TGI is 0.151 µM in experiment [11]; 1.94 µM in experiment [1]; 0.188 µM in experiment [2]; 0.0722 µM in [4]; 0.166 µM in experiment [5]; 0.186 µM in [6]. The TGI in [7] amounted to 0.0319 µM; in [8], 0.0627 µM; in experiment [9] it was 0.153 µM; in experiment [10], 0.0711 µM.

On to `CC(C)(CO)N1C(=O)c2ccccc2C1(O)c1ccc(Cl)cc1` (stereo not given), for which the TGI in experiment [11], in [1], in experiment [2], in experiment [3], in experiment [4] and in experiment [5] was greater than 100 µM each time. In addition, the TGI in experiment [6], in experiment [7], in experiment [9] and in experiment [10] was greater than 100 µM each time.

Consider `COc1cc([C@@H]2c3cc4c(cc3C[C@H]3COC(=O)[C@@H]32)OCO4)cc(OC)c1OC`, for which the GI50 is 0.00627 µM and 0.0092 µM in experiment [1]; 0.00392 µM in experiment [2]; 0.00618 µM in experiment [3]; 0.00463 µM in experiment [4]; 0.00581 µM in experiment [5]; 0.00577 µM in experiment [7]. Also, the GI50 is 0.0023 µM in experiment [8]; 0.00501 µM in experiment [9]; 0.00327 µM and < 0.005 µM in [10]. Also, the TGI in experiment [1] is 0.028 µM; in experiment [2], 1.5 µM; in [3] it was greater than 50 µM; in [4], 1.72 µM; in experiment [5] it was greater than 50 µM; in experiment [7] it was 40.5 µM. For the same molecule, the TGI was 0.00969 µM and 0.0642 µM in [8]; 13.2 µM in [9]; less than 0.005 µM in experiment [10].

Consider `C[C@]12CC/C(=N\O)C=C1CC[C@@H]1[C@@H]2CC[C@]2(C)C(=N/O)/C(=C/c3cccnc3)C[C@@H]12`, for which the TGI was 46.9 µM in experiment [11]; 61.8 µM in experiment [1]; 94.9 µM in [2]; greater than 100 µM in experiment [3]; 59.3 µM in experiment [6]; 85.5 µM in experiment [7]. For the same molecule, the TGI came to 44.4 µM in experiment [8], 79.9 µM in [9] and 22.7 µM in [10].

`CC(C)c1c(P(=O)(c2ccccc2)c2ccccc2)n(C)c2ccccc12`: the TGI in [11], in experiment [1], in experiment [2], in [5], in [6] and in experiment [7] was greater than 100 µM in each case. Also, the TGI in experiment [8], in experiment [9] and in [10] was greater than 100 µM throughout.

As to `OCc1ccccc1C1CSCSC1`, the TGI in [2], in experiment [5], in experiment [6], in experiment [9] and in [10] was greater than 100 µM throughout.

In the case of `CCN(CCCN(CC)C(=O)N[C@@H](Cc1ccccc1)C(=O)NC)C(=O)N[C@@H](Cc1ccccc1)C(=O)NC`, the TGI in experiment [11], in experiment [1], in [2], in [4], in [5] and in [6] was greater than 100 µM each time. In addition, the TGI in experiment [7], in experiment [8], in [9] and in [10] was greater than 100 µM in each case.

Consider `CC(C)CCNC(=O)c1ccc(CNC(=O)/C=C/c2ccc(OCc3ccccc3)cc2)cc1`, for which the TGI in experiment [11], in experiment [1], in experiment [2], in [4], in experiment [5] and in [7] was greater than 100 µM each time. The TGI in experiment [8], in [9] and in [10] was greater than 100 µM in each case.

With `O=C(/C=C/c1cccs1)c1ccc(Cl)cc1`, the TGI in experiment [1], in experiment [2], in experiment [3], in experiment [5], in experiment [6] and in [7] was greater than 100 µM in each case. Also, the TGI in [8], in experiment [9] and in experiment [10] was greater than 100 µM throughout.

As for `COc1cccc(C2c3cc4c(cc3OC(N3CCCC3)C2C)OCO4)c1OC` (stereo not given), the TGI is 14.3 µM in experiment [11]; 19.4 µM in experiment [1]; 16.6 µM in [3]; 3.15 µM in experiment [4]; 21 µM in experiment [5]; greater than 100 µM in [6]. In addition, the TGI was found to be 26.7 µM in experiment [7], 7.51 µM in [9] and 12.5 µM in experiment [10].

As to `CC(=O)Nc1ccc(Cl)c(Cl)c1`, the TGI in [1], in [2], in experiment [3], in [5], in [6] and in experiment [7] was greater than 100 µM in each case. For the same molecule, the TGI in experiment [9] and in experiment [10] was greater than 100 µM each time.

For `Cc1cc2cccc(Cl)c2nc1C(=O)c1ccccc1`, the TGI in [1], in experiment [2], in experiment [3], in experiment [4], in [5] and in experiment [6] was greater than 100 µM in each case. The TGI in experiment [7] and in experiment [9] was greater than 100 µM throughout.

With `Cc1nc2ccc([N+](=O)[O-])cc2c(=O)n1C(=S)Nc1cccc(Cl)c1`, the TGI came out at 41.2 µM in [11]; 31.6 µM in experiment [1]; 66.9 µM in experiment [2]; 56 µM in experiment [4]; 42.9 µM in experiment [5]; 67.5 µM in experiment [6]. Moreover, the TGI was 44.6 µM in experiment [7], 45.9 µM in experiment [8], 21.5 µM in experiment [9] and 52.6 µM in experiment [10].

On to `C=CCCCC12CCCc3cccc(c31)NC2=O` (stereo not given), for which the TGI is 40.4 µM in experiment [1]; 50.3 µM in [2]; 33.8 µM in experiment [3]; 42.4 µM in experiment [6]; greater than 100 µM in [7]; 45.6 µM in [8]. Moreover, the figures for the TGI in [9] and in experiment [10] were 87.6 µM and 33.8 µM, respectively.

As to `COc1cccc(-c2nc(-c3cnccn3)n(Cc3ccccc3)n2)c1`, the TGI in [11], in [1], in [2], in experiment [3], in experiment [5] and in experiment [6] was greater than 100 µM in each case. For the same molecule, the TGI in [7], in [9] and in experiment [10] was greater than 100 µM each time.

In the case of `COc1cc2c(cc1OC)C(=O)/C(=C/c1cc(C)c(O)c(C)c1)C2`, the TGI in experiment [1], in experiment [2], in experiment [3], in experiment [4], in [5] and in [6] was greater than 100 µM in each case. Besides, the TGI in [7], in experiment [8], in [9] and in experiment [10] was greater than 100 µM in each case.

In the case of `CC1CC(C#N)=C2NCCCCN2C1=O` (stereo not given), the TGI in [11], in experiment [1], in experiment [2], in [3], in [4] and in experiment [5] was greater than 100 µM in each case. For the same molecule, the TGI in [6], in [7], in experiment [9] and in experiment [10] was greater than 100 µM in each case.

With `CCN(CC)CCCn1c(=O)c2cccnc2n2c3c(=O)n(C)c(=O)n(C)c3nc12`, the TGI in experiment [11], in experiment [1], in [2], in [3], in experiment [4] and in experiment [5] was greater than 100 µM each time. Moreover, the TGI in experiment [6], in experiment [7], in [9] and in experiment [10] was greater than 100 µM in each case.

With `COc1ccc(CNc2nc3ccc(C(F)(F)F)cc3nc2-c2ccccc2)cc1OC`, the TGI in experiment [1], in experiment [2], in experiment [5], in [6], in experiment [7] and in [9] was greater than 100 µM in each case. Moreover, the TGI in experiment [10] is greater than 100 µM.

With `COC1C=CC23c4cc5c(cc4C(O)OC2CN(C)C3C1)OCO5` (stereo not given), the TGI in experiment [1] worked out at 2.99 µM; in experiment [3], 22.3 µM; in experiment [4], 24.8 µM; in experiment [5] it was 26.9 µM; in experiment [7], 17.9 µM; in [8], 9.89 µM. Besides, the TGI is 9.3 µM in experiment [9] and 56.7 µM in experiment [10].

As to `CCOC(=O)c1c(N)n(-c2ccccc2)c(=S)n(-c2ccccc2)c1=O`, the TGI in experiment [11], in [1], in [2], in [3], in experiment [5] and in experiment [6] was greater than 100 µM in each case. Further, the TGI in [9] and in experiment [10] was greater than 100 µM each time.

As to `O=c1c2cc(I)ccc2[nH]c(=S)n1Cc1ccccc1`, the TGI is greater than 100 µM in experiment [11]; greater than 100 µM in experiment [1]; greater than 100 µM in experiment [2]; 30.3 µM in [3]; 57.5 µM in [5]; 42 µM in experiment [6]. The TGI is 63 µM in [7], 54.3 µM in [8], 1.83 µM in experiment [9] and greater than 100 µM in experiment [10].
